System: MCF-7 breast CSCs
Experiment: Inhibition of mammosphere-forming activity of MCF-7 breast CSCs
Type: cell-based, human
Conditions: treated for 5 days in mammosphere media, read-out: IC-50 for blocking CSC propagation (mammosphere-forming activity)
Excerpt: The black bars show 2,4-dichlorobenzyl-TPP; the inclined bars show 1-naphthylmethyl-TPP; the dotted bars show 3-methylbenzyl-TPP; the unshaded bars show 2-chlorobenzyl-TPP; and the horizontal lined bars show 2-butene-1,4-bis-TPP. […] Data are represented as mean+/−SEM.

SMILES: C(=CC[P+](c1ccccc1)(c1ccccc1)c1ccccc1)C[P+](c1ccccc1)(c1ccccc1)c1ccccc1 [2-butene-1,4-bis-TPP]
- IC50: < 500 nM

Source: patent publication US11497759B2, “Repurposcins: targeted inhibitors of mitochondrial biogenesis for eradicating cancer stem cells” (LUNELLA BIOTECH, INC., priority 2017, dated 2022)
